The values that follow are results of earlier work, collected in patent publication US12605385B2, “Methotrexate formulation” (Therakind Ltd., priority 2014, dated 2026).

Structures are written as SMILES. Like-named read-outs stand apart in the source and are kept apart here.

The conditions of series [1]: 50% v/v propylene glycol: water formulation.

On to `CN(Cc1cnc2nc(N)nc(N)c2n1)c1ccc(C(=O)N[C@@H](CCC(=O)O)C(=O)O)cc1` [Methotrexate, 4-amino-N^10-methylpteroylglutamic acid], for which the solubility result (in alkaline solution) is reported as “freely soluble”; the solubility entry (in hydrochloric acid) is recorded as “slightly soluble”; the solubility entry (in water, alcohol, chloroform and ether) is “almost insoluble”. In addition, the “drug solubility on increasing the vehicle pH to 6.34” value in series [1] is reported as “further increased”. The “solubility at pH 5.29 compared with pH 4” value in series [1] is given as “significantly higher”.
